Laboratory results reported in ChEMBL document CHEMBL4028802, “DILIrank: the largest reference drug list ranked by the risk for developing drug-induced liver injury in humans” (Drug Discov Today, 2016).
Non-standard residues stand in square brackets, D forms with d. Residues, ends and D or L forms follow the SMILES beside them. dPhe(4-Cl) = N[C@H](Cc1ccc(Cl)cc1)C(=O)O; d2Nal = N[C@H](Cc1ccc2ccccc2c1)C(=O)O; dCit = NC(=O)NCCC[C@@H](N)C(=O)O; d3Pal = N[C@H](Cc1cccnc1)C(=O)O

How the values were obtained:
Homo sapiens [1] = organism: Homo sapiens; test: Liver toxicity in human assessed as induction of drug-induced liver injury by measuring verified drug-induced liver injury concern status
Homo sapiens [2] = organism: Homo sapiens; test: Liver toxicity in human assessed as induction of drug-induced liver injury by measuring severity class index
For DILI severity class in this document: key of the grades not given here.

Molecule | DILI_Concern (Homo sapiens [1]) | DILI_severity_class (Homo sapiens [2])
CC(=O)N[C@H](Cc1ccc2ccccc2c1)C(=O)N[C@H](Cc1ccc(Cl)cc1)C(=O)N[C@H](Cc1cccnc1)C(=O)N[C@@H](CO)C(=O)N[C@@H](Cc1ccc(O)cc1)C(=O)N[C@H](CCCNC(N)=O)C(=O)N[C@@H](CC(C)C)C(=O)N[C@@H](CCCNC(=N)N)C(=O)N1CCC[C@H]1C(=O)N[C@H](C)C(N)=O [CETRORELIX] (Ac-[d2Nal][dPhe(4-Cl)][d3Pal]SY[dCit]LRP[dA]-NH2) | Ambiguous-Dili-Concern | 3
OC[C@H]1OC(O)[C@H](O)[C@@H](O)[C@@H]1O (stereo partly specified) [DEXTROSE] | No-Dili-Concern | 0
C[C@]12CC[C@@H]3c4ccc(O)cc4CC[C@H]3[C@@H]1CC[C@@H]2O [ESTRADIOL] | Less-Dili-Concern | 2
CCCCCCCN(CC)CCCC(O)c1ccc(NS(C)(=O)=O)cc1 (stereo unspecified) [IBUTILIDE] | No-Dili-Concern | 0
IVERMECTIN | Less-Dili-Concern | 3
CC(=O)[C@@]1(O)CC[C@H]2[C@@H]3C[C@H](C)C4=CC(=O)CC[C@]4(C)[C@H]3CC[C@@]21C | Ambiguous-Dili-Concern | 2
CC(N)C(=O)OC(C)(C)Cc1ccc(Cl)cc1 (stereo unspecified) [ALAPROCLATE] | Most-Dili-Concern | 8
O=P1(N(CCCl)CCCl)NCCCO1 (stereo unspecified) [CYCLOPHOSPHAMIDE ANHYDROUS] | Less-Dili-Concern | 5
CC(O)(P(=O)(O)O)P(=O)(O)O [ETIDRONIC ACID] | No-Dili-Concern | 0
C[C@H]1COc2c(N3CCN(C)CC3)c(F)cc3c(=O)c(C(=O)O)cn1c23.C[C@H]1COc2c(N3CCN(C)CC3)c(F)cc3c(=O)c(C(=O)O)cn1c23.O [LEVOFLOXACIN] | Most-Dili-Concern | 8
c1cc(CN2CCCNCCNCCCNCC2)ccc1CN1CCCNCCNCCCNCC1 [PLERIXAFOR] | No-Dili-Concern | 0
O=C1Nc2ccccc2C1(c1ccc(O)cc1)c1ccc(O)cc1 [OXYPHENISATINE] | Most-Dili-Concern | 8
O=C1CN2Cc3c(ccc(Cl)c3Cl)N=C2N1 [ANAGRELIDE] | Ambiguous-Dili-Concern | 3
COc1ccc2[n-]c([S@+]([O-])Cc3ncc(C)c(OC)c3C)nc2c1.[Na+] | Less-Dili-Concern | 4
CCOC(=O)[C@H](CCc1ccccc1)N[C@@H](C)C(=O)N1Cc2cc(OC)c(OC)cc2C[C@H]1C(=O)O [MOEXIPRIL] | Ambiguous-Dili-Concern | 3
CCOC(=O)[C@H](CCc1ccccc1)N[C@@H](C)C(=O)N1CCC[C@H]1C(=O)O | Less-Dili-Concern | 7
Cn1c(CCCC(=O)O)nc2cc(N(CCCl)CCCl)ccc21 [BENDAMUSTINE] | No-Dili-Concern | 0
CCN(CC)CC#CCOC(=O)C(O)(c1ccccc1)C1CCCCC1 (stereo unspecified) [OXYBUTYNIN] | No-Dili-Concern | 0
NC1=NC(=O)C(c2ccccc2)O1 (stereo unspecified) [PEMOLINE] | Most-Dili-Concern | 8
CC1=NN(c2ccc(C)c(C)c2)C(=O)/C1=N\Nc1cccc(-c2cccc(C(=O)O)c2)c1O.NCCO.NCCO [ELTROMBOPAG OLAMINE] | Most-Dili-Concern | 4
CC(C)NNC(=O)c1ccncc1 [IPRONIAZID] | Most-Dili-Concern | 8
COC[C@@H](NC(C)=O)C(=O)NCc1ccccc1 [LACOSAMIDE] | Ambiguous-Dili-Concern | 3

Molecule | DILI_Concern (Homo sapiens [1]) | DILI_severity_class (Homo sapiens [2])
CC(=O)O[C@H]1C[C@@H]2CC[C@@H]3[C@H](CC[C@@]4(C)[C@H]3C[C@H]([N+]3(C)CCCCC3)[C@@H]4OC(C)=O)[C@@]2(C)C[C@@H]1N1CCCCC1 [VECURONIUM] | No-Dili-Concern | 0
CCCCC[C@H](O)/C=C/[C@@H]1[C@H]2C/C(=C/CCCC(=O)O)O[C@H]2C[C@H]1O [EPOPROSTENOL] | Ambiguous-Dili-Concern | 7
N=C(N)NC(=O)Cc1c(Cl)cccc1Cl [GUANFACINE] | Ambiguous-Dili-Concern | 3
Nc1cc(N2CCCCC2)nc(N)[n+]1[O-] [MINOXIDIL] | No-Dili-Concern | 0
Cc1cc2nc3c(=O)[nH]c(=O)nc-3n(C[C@H](O)[C@H](O)[C@H](O)CO)c2cc1C [RIBOFLAVIN] | No-Dili-Concern | 0
NS(=O)(=O)c1cc(Cl)c(Cl)c(S(N)(=O)=O)c1 [DICHLORPHENAMIDE] | No-Dili-Concern | 0
O=C(O)COC(=O)Cc1ccccc1Nc1c(Cl)cccc1Cl [ACECLOFENAC] | Less-Dili-Concern | 0
COc1cc2ncnc(Nc3ccc(F)c(Cl)c3)c2cc1OCCCN1CCOCC1 [GEFITINIB] | Most-Dili-Concern | 4
COc1ccc2cc([C@H](C)C(=O)O)ccc2c1 [NAPROXEN] | Less-Dili-Concern | 3
O=C(N[C@H](CO)[C@H](O)c1ccc([N+](=O)[O-])cc1)C(Cl)Cl [CHLORAMPHENICOL] | No-Dili-Concern | 0
Cc1ccc(NC(=O)c2ccc(CN3CCN(C)CC3)cc2)cc1Nc1nccc(-c2cccnc2)n1 [IMATINIB] | Most-Dili-Concern | 8
CCN(C)C(=O)Oc1cccc([C@H](C)N(C)C)c1 [RIVASTIGMINE] | Less-Dili-Concern | 3
CC1=C(CC(=O)O)c2cc(F)ccc2/C1=C\c1ccc([S+](C)[O-])cc1 (stereo unspecified) | Most-Dili-Concern | 8
O=C(c1cc(O)c(O)c(O)c1)c1ccc(O)c(O)c1O [EXIFONE] | Most-Dili-Concern | 8
C=C1C[C@@H]2[C@H](CC[C@]3(C)C(=O)CC[C@@H]23)[C@@]2(C)C=CC(=O)C=C12 [EXEMESTANE] | Most-Dili-Concern | 4
C[C@](N)(Cc1ccc(O)cc1)C(=O)O [METYROSINE] | No-Dili-Concern | 0
Clc1ccc2c(c1)CCc1cccnc1C2=C1CCNCC1 [DESLORATADINE] | Less-Dili-Concern | 3
CC(CN(C)C)CN1c2ccccc2CCc2ccccc21 (stereo unspecified) [TRIMIPRAMINE] | Ambiguous-Dili-Concern | 2
C/C(=C\c1csc(C)n1)[C@@H]1C[C@@H]2O[C@]2(C)CCC[C@H](C)[C@H](O)[C@@H](C)C(=O)C(C)(C)[C@@H](O)CC(=O)N1 [IXABEPILONE] | Ambiguous-Dili-Concern | 7
CN(C)CCOC(c1ccc(Cl)cc1)c1ccccn1 (stereo unspecified) [CARBINOXAMINE] | No-Dili-Concern | 0
Cl.N [AMMONIUM CHLORIDE] | No-Dili-Concern | 0
